In the NIST ThermoML archive (doi:10.1016/j.tca.2011.02.002):
Numbers after ± are expanded uncertainties.

Assays:
[1] = xn = mol fraction of the nth substance listed; conditions: 101 kPa, Liquid, x1 = 1; for mass density: Vibrating tube method
[2] = 101 kPa, Liquid; for mass density: Vibrating tube method

C1CCOCC1 [tetrahydropyran] + Cc1ccccn1
mass density ([1]; 298.15 K): 879.136 ± 0.91 kg/m3
speed of sound ([1]; 298.15 K): 1269.9 ± 2 m/s
mass density ([1]; 303.15 K): 873.992 ± 0.9 kg/m3
speed of sound ([1]; 303.15 K): 1246.8 ± 2 m/s
mass density ([1]; 308.15 K): 868.831 ± 0.89 kg/m3
speed of sound ([1]; 308.15 K): 1224.5 ± 2 m/s

Cc1cccnc1 [3-methylpyridine]
speed of sound ([2]; 298.15 K): 1424 ± 2 m/s
mass density ([2]; 298.15 K): 952.002 ± 1 kg/m3
speed of sound ([2]; 303.15 K): 1404 ± 2 m/s
mass density ([2]; 303.15 K): 947.449 ± 1 kg/m3
speed of sound ([2]; 308.15 K): 1384 ± 2 m/s
mass density ([2]; 308.15 K): 942.831 ± 0.99 kg/m3

Cc1ccccn1 [2-methylpyridine]
speed of sound ([2]; 298.15 K): 1380.1 ± 2 m/s
mass density ([2]; 298.15 K): 939.802 ± 0.99 kg/m3
speed of sound ([2]; 303.15 K): 1361 ± 2 m/s
mass density ([2]; 303.15 K): 935.117 ± 0.98 kg/m3
speed of sound ([2]; 308.15 K): 1339.9 ± 2 m/s
mass density ([2]; 308.15 K): 930.414 ± 0.98 kg/m3

c1ccncc1 [pyridine]
speed of sound ([2]; 298.15 K): 1417.6 ± 1.1 m/s
mass density ([2]; 298.15 K): 978.249 ± 0.3 kg/m3
speed of sound ([2]; 303.15 K): 1397.4 ± 1.1 m/s
mass density ([2]; 303.15 K): 973.224 ± 0.3 kg/m3
speed of sound ([2]; 308.15 K): 1377.1 ± 1.1 m/s
mass density ([2]; 308.15 K): 968.166 ± 0.3 kg/m3

C1CCOCC1 [tetrahydropyran] + Cc1ccncc1
mass density ([1]; 298.15 K): 879.136 ± 0.91 kg/m3
speed of sound ([1]; 298.15 K): 1269.9 ± 2 m/s
mass density ([1]; 303.15 K): 873.992 ± 0.9 kg/m3
speed of sound ([1]; 303.15 K): 1246.8 ± 2 m/s
mass density ([1]; 308.15 K): 868.831 ± 0.89 kg/m3
speed of sound ([1]; 308.15 K): 1224.5 ± 2 m/s

C1CCOCC1 [tetrahydropyran] + c1ccncc1
mass density ([1]; 298.15 K): 879.136 ± 0.91 kg/m3
speed of sound ([1]; 298.15 K): 1269.9 ± 2 m/s
mass density ([1]; 303.15 K): 873.992 ± 0.9 kg/m3
speed of sound ([1]; 303.15 K): 1246.8 ± 2 m/s
mass density ([1]; 308.15 K): 868.831 ± 0.89 kg/m3
speed of sound ([1]; 308.15 K): 1224.5 ± 2 m/s

C1CCOCC1 [tetrahydropyran]
speed of sound ([2]; 298.15 K): 1269.9 ± 2 m/s
mass density ([2]; 298.15 K): 879.136 ± 0.91 kg/m3
speed of sound ([2]; 303.15 K): 1246.8 ± 2 m/s
mass density ([2]; 303.15 K): 873.992 ± 0.9 kg/m3
speed of sound ([2]; 308.15 K): 1224.5 ± 2 m/s
mass density ([2]; 308.15 K): 868.831 ± 0.89 kg/m3

C1CCOCC1 [tetrahydropyran] + Cc1cccnc1
mass density ([1]; 298.15 K): 879.136 ± 0.91 kg/m3
speed of sound ([1]; 298.15 K): 1269.9 ± 2 m/s
mass density ([1]; 303.15 K): 873.992 ± 0.9 kg/m3
speed of sound ([1]; 303.15 K): 1246.8 ± 2 m/s
mass density ([1]; 308.15 K): 868.831 ± 0.89 kg/m3
speed of sound ([1]; 308.15 K): 1224.5 ± 2 m/s

Cc1ccncc1 [4-methylpyridine]
speed of sound ([2]; 298.15 K): 1431.5 ± 1 m/s
mass density ([2]; 298.15 K): 950.179 ± 0.3 kg/m3
speed of sound ([2]; 303.15 K): 1410.7 ± 1 m/s
mass density ([2]; 303.15 K): 945.413 ± 0.3 kg/m3
speed of sound ([2]; 308.15 K): 1389.9 ± 1 m/s
mass density ([2]; 308.15 K): 940.821 ± 0.3 kg/m3
